Assay results from patent US5266599A, “Use of (+)-1-[(3,4,5-trimethoxy)-benzyloxymethyl]-1-phenyl-N,N-dimethyl-n-propy lamine to increase gastric discharge in a subject” (priority 1989, dated 1993).
“Also recorded” adds a separate entry of the source. Counter-ions that a name gives are not always drawn. Like-named read-outs stand apart in the source and are kept apart here.

Columns and labels:
delta receptor = molecular target: T1, delta receptor (Cavia porcellus, UniProt A0A286XTF2); assay: biochemical; conditions: CI50, inhibition of 50% of the binding of a specific radioactive ligand
T1 construct: from tissue
T1 sequence (A0A286XTF2 1-366): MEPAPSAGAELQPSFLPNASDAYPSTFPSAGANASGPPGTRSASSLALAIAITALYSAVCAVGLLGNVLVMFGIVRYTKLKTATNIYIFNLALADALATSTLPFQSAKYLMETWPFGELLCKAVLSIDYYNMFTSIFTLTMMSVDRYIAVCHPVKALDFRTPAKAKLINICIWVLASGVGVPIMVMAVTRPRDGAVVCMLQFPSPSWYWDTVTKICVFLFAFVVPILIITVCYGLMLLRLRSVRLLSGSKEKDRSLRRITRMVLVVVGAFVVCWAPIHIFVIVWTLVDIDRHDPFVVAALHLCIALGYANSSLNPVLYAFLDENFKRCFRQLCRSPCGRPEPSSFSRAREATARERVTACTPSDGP

mu receptor = assay: Binding affinity to opiate receptor mu (inhibition of binding of a specific radioactive ligand); conditions: for IC50: read-out: CI50, inhibition of 50% of the binding of a specific radioactive ligand, mu receptor
kappa receptor = molecular target: T2, kappa receptor (Cavia porcellus, UniProt P41144); assay: biochemical; conditions: CI50, inhibition of 50% of the binding of a specific radioactive ligand
T2 construct: from tissue
T2 sequence (P41144 whole entry): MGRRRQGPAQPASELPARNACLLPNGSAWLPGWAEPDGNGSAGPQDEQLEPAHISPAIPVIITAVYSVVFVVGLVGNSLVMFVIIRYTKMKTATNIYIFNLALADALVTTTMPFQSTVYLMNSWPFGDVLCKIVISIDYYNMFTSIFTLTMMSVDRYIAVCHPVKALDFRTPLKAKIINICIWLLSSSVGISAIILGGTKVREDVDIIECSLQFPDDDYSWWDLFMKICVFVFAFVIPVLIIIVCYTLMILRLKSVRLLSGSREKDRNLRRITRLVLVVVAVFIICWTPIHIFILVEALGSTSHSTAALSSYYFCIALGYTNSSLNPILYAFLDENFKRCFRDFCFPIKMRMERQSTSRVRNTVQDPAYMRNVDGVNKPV

mice = assay: Acute toxicity, oral, in male mice; format: in vivo
Description: (§1) This toxicity has been studied orally in male mice. The test products have been administered at the rate of 2 ml of their aqueous solution per 100 g of animal weight. The animals are then observed for 3 hours after administration, then daily for fourteen days, when they are sacrificed and then an autopsy is carried out.
(§2) The LD50 (lethal doses which cause the death of 50% of the animals) have been calculated according to the method of Reed J. L. and Muench H. (Am. J. Hyg. 1939, 27, p. 493).

[1] = tested on: opiate receptors of the gastric mucous membrane; assay: Effect of the products on the gastric evacuation of solids in dogs; format: in vivo; conditions: for Variation in % of gastric evacuation of solids: oral capsule, one hour after meal; for effect on gastric discharge of solids (in words): one hour after administration
Description: The principle of the test consists in measuring the gastric content of the animals one hour after eating a meal comprising 400 g of solid matter with 21.7% dry matter composed of:
and 20 g of sheeps liver containing radiolabelled cyanocobalamine. The meal is consumed within about 5 minutes by the animals. After one hour, the gastric content is collected by means of a small tube placed approximately 10 cm into the pyloris before the experiment.
The collected sample is weighed and homogenized. Its radioactivity is measured and the amount of the gastric discharge expressed in percentage is calculated according to the formula: [formula] in which: […]
In practice, each test is carried out on three dogs and consists in administering to them, 20 minutes before eating the meal described above, a capsule containing the test product at a dose of […] per kg animal weight or a capsule placebo which serves to determine the control phenomenon of the discharge on the animal. The 3 dogs receive each treatment twice in random order. […] The meal is presented and ingested 20 minutes after the capsule containing the test product has been administered. The evacuation values of the solid phases are measured as described before and compared using the test of Mann and Whitney (U test). The difference in comparison with the control values is considered significant when p is<or =0.05.
The effect of the test products is objectivised by the percentage variation calculated according to the relation: [formula]

[2] = tested on: opiate receptors of the kappa type in the gastric mucous membrane; conditions: dog, in vivo, cited from earlier work
[3] = tested on: abdominal cramps caused by acetic acid; assay: Analgesic activity in vivo, abdominal cramps caused by intraperitoneal acetic acid (derived from Koster); set-up: species or system mice
gastric discharge = conditions: in vivo; cited from earlier work
duodenum of the rat = assay: tissue or blood; format: cell-based; conditions: for IC50: Rattus norvegicus
[4] = Acute toxicity, oral, in male mice; format: in vivo; conditions: mouse, in vivo, po, fourteen days
Description: as §1, §2

[5] = tested on: opiate receptors mu, delta and kappa; format: binding
[6] = Solubility, hygroscopicity and stability of the addition salt; conditions: D-(-) tartaric acid salt
[7] = mu receptor, racemates uncorrected
[8] = in vitro, compared with the (+) enantiomer or other receptors

SMILES: CCC(COCc1ccc(OC)c(OC)c1)(c1ccccc1)N(C)C (racemic) [Ex. 1 of U.S. Pat. No. 4,301,163, (+/-)1-[(3,4-dimethoxy)benzyloxymethyl]-1-phenyl-N,N-dimethyl-n-propylamine]
- IC50 (delta receptor): 7.8 µM
- IC50 (mu receptor; [7]): 1.11 µM
- IC50 (kappa receptor): 1.11 µM

SMILES: CCC(COCc1cc(OC)c(OC)c(OC)c1)(c1ccccc1)N(C)C (single isomer, unassigned; (-)) [(-) Enantiomer, (-) 1-[(3,4,5-trimethoxy)benzyloxymethyl]-1-phenyl-N,N-dimethyl-n-propylamine]
- LD50 (mice; fourteen days, 20160 min): 255 mg/kg
- IC50 (delta receptor): 12.3 µM
- Variation in % of gastric evacuation of solids ([1]; 0.25 mg/kg): +26%
- effect on gastric discharge of solids (in words) ([1]; listed as levorotatory enantiomer): four times less significant
- IC50 (mu receptor; [7]): 0.58 µM
- IC50 (kappa receptor): 2.63 µM

SMILES: CCC1C2Cc3ccc(O)cc3C1(CC)CCN2Cc1ccoc1 (single isomer, unassigned) [MR 2266]
- inhibition of the gastric discharge effect of the product of the invention by the antagonist (in words) ([1]; intravenous antagonist): inhibited
- inhibition of the gastric discharge effect of kappa agonists (in words) [2]: inhibited

SMILES: CCC(COCc1cc(OC)c(OC)c(OC)c1)(NC)c1ccccc1 (racemic) [Ex. 12 of U.S. Pat. No. 4,301,163]
- IC50 (delta receptor): 2.25 µM
- % analgesia ([3]; 50 mg/kg, orally, mice): 44.0%
- % analgesia, corrected for racemic compound (multiplied by two) ([3]; 50 mg/kg, orally, mice, racemate correction): 88.0%
- mu receptor affinity (in words) (mu receptor; [8]): just as, if not more active
- IC50 (mu receptor; [7]): 0.36 µM
- IC50 (kappa receptor): 2.28 µM

SMILES: CCN(CC)CCNC(=O)c1cc(Cl)c(N)cc1OC [metoclopramide]
- gastric discharge (in words) (gastric discharge): possesses this property

SMILES: CN1c2ccccc2C(c2ccccc2F)=NCC1CNC(=O)c1ccsc1 (stereo not shown) [Tifluadom]
- gastric discharge after oral administration (in words) ([2]; po): increased gastric discharge; also recorded: modify the gastric discharge by their local action

SMILES: CCC(COCc1cc(OC)c(OC)c(OC)c1)(c1ccccc1)N(C)C (single isomer, unassigned; (+)) [(+) Enantiomer, (+) 1-[(3,4,5-trimethoxy)benzyloxymethyl]-1-phenyl-N,N-dimethyl-n-propylamine]
- antispasmodic activity (in words) (duodenum of the rat): activity slightly above that of papaverine; also recorded: possesses an antispasmodic activity
- IC50 (duodenum of the rat; read-out: molar concentration inhibiting 50% of the amplitude of spasms caused by barium chloride): 17 µM
- toxicity relative to the levorotatory antipode (in words) (mice): about half as toxic
- LD50 at 336 h [4]: 407 mg/kg
- IC50 (delta receptor): 0.54 µM
- receptor binding affinity to mu, delta and kappa (in words) [5]: shows a receptor binding affinity to the receptors mu, delta and kappa; also recorded: shows an "in vitro" affinity with the opiate receptors mu, delta and kappa; also recorded: showing an affinity to the three receptors studied, with a non-negligible intensity
- % analgesia ([3]; mouse, in vivo): 17.6%
- times less analgesic than the compound of Example 12 of the U.S. Patent ([3]; mouse, in vivo): ~5 times
- times less analgesic than the trimebutine ([3]; mouse, in vivo): ~3 times
- analgesic effect (in words) ([3]; mouse, in vivo, po): virtually without any analgesic effect; also recorded: does not have "in vivo", as one would expect it, a central analgesic activity; also recorded: very little analgesic effect
- Variation in % of gastric evacuation of solids, with MR 2266 ([1]; 0.25 mg/kg oral + MR 2266 0.1 mg per kg intravenous): +14%
- Variation in % of gastric evacuation of solids, with naloxone ([1]; 0.25 mg/kg oral + naloxone 0.1 mg per kg intravenous): +5%
- Variation in % of gastric evacuation of solids ([1]; 0.25 mg/kg): +110%
- effect on gastric discharge of solids (in words) ([1]; listed as compound of the invention): increased discharge of solids in dogs
- effect on gastric discharge of solids (in words) ([1]; listed as product of the invention): doubles the gastric evacuation of the solids; also recorded: clearly shows an activity which encourages gastric discharge of solids in dogs
- IC50 (mu receptor; [7]): 0.196 µM
- IC50 (kappa receptor): 0.232 µM

SMILES: CCC(COCc1ccccc1)(c1ccccc1)N(C)C (racemic) [Ex. 3 of U.S. Pat. No. 4,301,163, (+/-)1-benzyloxymethyl-1-phenyl-N,N-dimethyl-n-propylamine]
- IC50 (delta receptor): 14.7 µM
- % analgesia ([3]; 50 mg/kg, orally, mice): 27.6%
- mu receptor affinity (in words) (mu receptor; [8]): just as, if not more active
- IC50 (mu receptor; [7]): 0.19 µM
- IC50 (kappa receptor): 0.56 µM

SMILES: COc1ccc(Cc2nccc3cc(OC)c(OC)cc23)cc1OC [Papaverine]
- IC50 (duodenum of the rat; read-out: IC50, inhibition of 50% of the amplitude of contractions): 27.4 µM

SMILES: CCC(COCc1cc(OC)c(OC)c(OC)c1)(c1ccccc1)N(C)C (single isomer, unassigned) [D-(-) tartaric acid addition salt, (+) 1-[(3,4,5-trimethoxy)-benzyloxymethyl]-1-phenyl-N-N-dimethyl-n-propylamineD-(-)-tartrate]
- hygroscopicity (in words) [6]: without being hygroscopic
- physico-chemical stability (in words) [6]: physico-chemical stability necessary for its use
- solubility in water (in words) [6]: soluble in water

SMILES: CCC(COC(=O)c1cc(OC)c(OC)c(OC)c1)(c1ccccc1)N(C)C (racemic) [Trimebutine, (+/-)-2-dimethylamino-2-phenyl-n-butyl 3,4,5-trimethoxybenzoate]
- IC50 (delta receptor): 1.75 µM
- % analgesia ([3]; mouse, in vivo): 24.3%
- % analgesia, corrected for racemic compound (multiplied by two) ([3]; mouse, in vivo): 48.6%
- Variation in % of gastric evacuation of solids ([1]; 5 mg/kg): -4%
- mu receptor affinity (in words) (mu receptor): just as, if not more active
- IC50 (mu receptor): 0.146 µM
- IC50 (kappa receptor): 1.46 µM

SMILES: COc1ccc(C(C)(COCc2ccc(Cl)cc2)N(C)C)cc1 (racemic) [Ex. 13 of U.S. Pat. No. 4,301,163, (+/-) 1-(p-chlorobenzyloxymethyl)-1-(p-methoxyphenyl)N,N-dimethyl-n-ethylamine]
- IC50 (delta receptor): 4.39 µM
- % analgesia ([3]; 50 mg/kg, orally, mice): 27.9%
- mu receptor affinity (in words) (mu receptor; [8]): just as, if not more active
- IC50 (mu receptor; [7]): 0.25 µM
- IC50 (kappa receptor): 0.9 µM

SMILES: CN1CC[C@]23c4c5ccc(O)c4O[C@H]2[C@@H](O)C=C[C@H]3[C@H]1C5 [Morphine]
- antispasmodic activity (in words) (duodenum of the rat; barium chloride, duodenum of the rat, in vitro): inactive; also recorded: inactive at a concentration of more than 5 times greater than that of the product of the invention
